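96-well plates; 48 h exposure; 5 concentrations. Endpoints by linear interpolation between flanking doses. Not reached: highest tested concentration assigned. The concentration for full growth arrest is given as TGI.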
Key:
Experiment in all cases: NCI tumour cell line growth inhibition, 48 h
A549 NSCLC = test system: A549 NSCLC
KM12 colon = test system: KM12 colon
SW-620 colon = test system: SW-620 colon
RPMI-8226 leukemia = test system: RPMI-8226 leukemia
RXF 393 renal = test system: RXF 393 renal
UACC-62 melanoma = test system: UACC-62 melanoma
SK-MEL-5 melanoma = test system: SK-MEL-5 melanoma
U251 CNS = test system: U251 CNS
LOX IMVI melanoma = test system: LOX IMVI melanoma
UO-31 renal = test system: UO-31 renal
EKVX NSCLC = test system: EKVX NSCLC
A498 renal = test system: A498 renal
CCRF-CEM leukemia = test system: CCRF-CEM leukemia
SF-295 CNS = test system: SF-295 CNS
HT29 colon = test system: HT29 colon
OVCAR-3 ovarian = test system: OVCAR-3 ovarian
SNB-19 CNS = test system: SNB-19 CNS
786-0 renal = test system: 786-0 renal
NCI-H23 lung = test system: NCI-H23 lung
COLO 205 colon = test system: COLO 205 colon
SF-268 CNS = test system: SF-268 CNS
HCT-15 colon = test system: HCT-15 colon
NCI-H522 lung = test system: NCI-H522 lung
M14 melanoma = test system: M14 melanoma
PC-3 prostate = test system: PC-3 prostate
CAKI-1 renal = test system: CAKI-1 renal
SK-MEL-2 melanoma = test system: SK-MEL-2 melanoma
MCF7 breast = test system: MCF7 breast
NCI/ADR-RES ovarian = test system: NCI/ADR-RES ovarian
BT-549 breast = test system: BT-549 breast
OVCAR-5 ovarian = test system: OVCAR-5 ovarian
SN12C renal = test system: SN12C renal
HOP-62 NSCLC = test system: HOP-62 NSCLC
DU-145 prostate = test system: DU-145 prostate
MDA-N = test system: MDA-N
MOLT-4 leukemia = test system: MOLT-4 leukemia
UACC-257 melanoma = test system: UACC-257 melanoma
OVCAR-4 ovarian = test system: OVCAR-4 ovarian
HCT-116 colon = test system: HCT-116 colon
OVCAR-8 ovarian = test system: OVCAR-8 ovarian
IGROV1 ovarian = test system: IGROV1 ovarian
HOP-92 NSCLC = test system: HOP-92 NSCLC
NCI-H460 lung = test system: NCI-H460 lung
ACHN renal = test system: ACHN renal
MDA-MB-435 = test system: MDA-MB-435
TK-10 renal = test system: TK-10 renal
SK-MEL-28 melanoma = test system: SK-MEL-28 melanoma
MALME-3M melanoma = test system: MALME-3M melanoma
HL-60(TB) leukemia = test system: HL-60(TB) leukemia
MDA-MB-231 breast = test system: MDA-MB-231 breast
K-562 leukemia = test system: K-562 leukemia
HS 578T breast = test system: HS 578T breast
NCI-H226 lung = test system: NCI-H226 lung
HCC-2998 colon = test system: HCC-2998 colon
SF-539 CNS = test system: SF-539 CNS
SR leukemia = test system: SR leukemia
SNB-75 CNS = test system: SNB-75 CNS
SK-OV-3 ovarian = test system: SK-OV-3 ovarian

`O=c1[nH]c(=S)[nH]c2c1C(c1ccc(Cl)cc1)c1c([nH]c(=S)[nH]c1=O)O2` gave a TGI (A549 NSCLC) of over 100 µM, a TGI (KM12 colon) of over 100 µM and a TGI (SW-620 colon) of over 100 µM. It also gave a TGI (RPMI-8226 leukemia) of over 100 µM, a TGI (RXF 393 renal) of over 100 µM and a TGI (UACC-62 melanoma) of over 100 µM. The TGI (SK-MEL-5 melanoma) was over 100 µM, the TGI (U251 CNS) was over 100 µM and the TGI (LOX IMVI melanoma) was over 100 µM. For the same compound, the TGI (UO-31 renal) was over 100 µM, the TGI (EKVX NSCLC) was over 100 µM and the TGI (A498 renal) was over 100 µM. It also gave a TGI (CCRF-CEM leukemia) of over 100 µM, a TGI (SF-295 CNS) of over 100 µM and a TGI (HT29 colon) of over 100 µM. It also gave a TGI (OVCAR-3 ovarian) of over 100 µM, a TGI (SNB-19 CNS) of over 100 µM and a TGI (786-0 renal) of over 100 µM. For the same compound, the TGI (NCI-H23 lung) was over 100 µM, the TGI (COLO 205 colon) was over 100 µM and the TGI (SF-268 CNS) was over 100 µM. The TGI (HCT-15 colon) was over 100 µM, the TGI (NCI-H522 lung) was over 100 µM and the TGI (M14 melanoma) was over 100 µM. The TGI (PC-3 prostate) was over 100 µM, the TGI (CAKI-1 renal) was over 100 µM and the TGI (SK-MEL-2 melanoma) was over 100 µM. The TGI (MCF7 breast) was over 100 µM, the TGI (NCI/ADR-RES ovarian) was over 100 µM and the TGI (BT-549 breast) was over 100 µM. For the same compound, the TGI (OVCAR-5 ovarian) was over 100 µM, the TGI (SN12C renal) was over 100 µM and the TGI (HOP-62 NSCLC) was over 100 µM. For the same compound, the TGI (DU-145 prostate) was over 100 µM, the TGI (MDA-N) was over 100 µM and the TGI (MOLT-4 leukemia) was over 100 µM. It also gave a TGI (UACC-257 melanoma) of over 100 µM, a TGI (OVCAR-4 ovarian) of over 100 µM and a TGI (HCT-116 colon) of over 100 µM. The TGI (OVCAR-8 ovarian) was over 100 µM, the TGI (IGROV1 ovarian) was over 100 µM and the TGI (HOP-92 NSCLC) was over 100 µM. The TGI (NCI-H460 lung) was over 100 µM, the TGI (ACHN renal) was over 100 µM and the TGI (MDA-MB-435) was over 100 µM. For the same compound, the TGI (TK-10 renal) was over 100 µM, the TGI (SK-MEL-28 melanoma) was over 100 µM and the TGI (MALME-3M melanoma) was over 100 µM. For the same compound, the TGI (HL-60(TB) leukemia) was over 100 µM, the TGI (MDA-MB-231 breast) was over 100 µM and the TGI (K-562 leukemia) was over 100 µM. It also gave a TGI (HS 578T breast) of over 100 µM and a TGI (NCI-H226 lung) of over 100 µM.
For `CCCCNc1nc(N)nc(Nc2ccc(Br)cc2)c1N=O`, the TGI (HCC-2998 colon) was over 100 µM, the TGI (A549 NSCLC) was over 100 µM and the TGI (KM12 colon) was over 100 µM. For the same compound, the TGI (SW-620 colon) was over 100 µM, the TGI (RPMI-8226 leukemia) was over 100 µM and the TGI (RXF 393 renal) was over 100 µM. It also gave a TGI (UACC-62 melanoma) of over 100 µM, a TGI (SK-MEL-5 melanoma) of over 100 µM and a TGI (U251 CNS) of over 100 µM. It also gave a TGI (SF-539 CNS) of over 100 µM, a TGI (LOX IMVI melanoma) of over 100 µM and a TGI (UO-31 renal) of over 100 µM. The TGI (EKVX NSCLC) was over 100 µM, the TGI (CCRF-CEM leukemia) was over 100 µM and the TGI (HT29 colon) was over 100 µM. The TGI (OVCAR-3 ovarian) was over 100 µM, the TGI (SNB-19 CNS) was over 100 µM and the TGI (786-0 renal) was over 100 µM. For the same compound, the TGI (NCI-H23 lung) was over 100 µM, the TGI (COLO 205 colon) was over 100 µM and the TGI (SF-268 CNS) was over 100 µM. For the same compound, the TGI (HCT-15 colon) was over 100 µM, the TGI (NCI-H522 lung) was over 100 µM and the TGI (M14 melanoma) was over 100 µM. For the same compound, the TGI (PC-3 prostate) was over 100 µM, the TGI (SK-MEL-2 melanoma) was over 100 µM and the TGI (MCF7 breast) was over 100 µM. For the same compound, the TGI (NCI/ADR-RES ovarian) was over 100 µM, the TGI (BT-549 breast) was over 100 µM and the TGI (OVCAR-5 ovarian) was over 100 µM. It also gave a TGI (SN12C renal) of over 100 µM, a TGI (SR leukemia) of over 100 µM and a TGI (HOP-62 NSCLC) of over 100 µM. The TGI (DU-145 prostate) was over 100 µM, the TGI (MDA-N) was over 100 µM and the TGI (MOLT-4 leukemia) was over 100 µM. For the same compound, the TGI (UACC-257 melanoma) was over 100 µM, the TGI (HCT-116 colon) was over 100 µM and the TGI (OVCAR-8 ovarian) was over 100 µM. For the same compound, the TGI (IGROV1 ovarian) was over 100 µM, the TGI (NCI-H460 lung) was over 100 µM and the TGI (ACHN renal) was over 100 µM. It also gave a TGI (MDA-MB-435) of over 100 µM, a TGI (TK-10 renal) of over 100 µM and a TGI (SK-MEL-28 melanoma) of over 100 µM. The TGI (MALME-3M melanoma) was over 100 µM, the TGI (HL-60(TB) leukemia) was over 100 µM and the TGI (MDA-MB-231 breast) was over 100 µM. The TGI (K-562 leukemia) was over 100 µM, the TGI (HS 578T breast) was 82.8 µM and the TGI (NCI-H226 lung) was over 100 µM. It also gave a TGI (SNB-75 CNS) of over 100 µM.
`NC(=O)N/N=C\c1ccccc1OCc1cccc(COc2ccccc2/C=N\NC(N)=O)n1` showed a TGI (HCC-2998 colon) of over 100 µM, a TGI (A549 NSCLC) of over 100 µM and a TGI (KM12 colon) of over 100 µM. The TGI (SW-620 colon) was over 100 µM, the TGI (RPMI-8226 leukemia) was over 100 µM and the TGI (RXF 393 renal) was 31.5 µM. The TGI (UACC-62 melanoma) was 51.6 µM, the TGI (SK-MEL-5 melanoma) was over 100 µM and the TGI (U251 CNS) was 18.7 µM. For the same compound, the TGI (SF-539 CNS) was 47.9 µM, the TGI (LOX IMVI melanoma) was over 100 µM and the TGI (UO-31 renal) was over 100 µM. The TGI (EKVX NSCLC) was 69.5 µM, the TGI (A498 renal) was over 100 µM and the TGI (CCRF-CEM leukemia) was over 100 µM. For the same compound, the TGI (SF-295 CNS) was 33.8 µM, the TGI (HT29 colon) was over 100 µM and the TGI (OVCAR-3 ovarian) was over 100 µM. For the same compound, the TGI (SNB-19 CNS) was over 100 µM, the TGI (786-0 renal) was over 100 µM and the TGI (NCI-H23 lung) was over 100 µM. The TGI (SK-OV-3 ovarian) was 49.9 µM, the TGI (COLO 205 colon) was over 100 µM and the TGI (SF-268 CNS) was 88.6 µM. For the same compound, the TGI (HCT-15 colon) was over 100 µM, the TGI (NCI-H522 lung) was over 100 µM and the TGI (M14 melanoma) was over 100 µM. It also gave a TGI (PC-3 prostate) of over 100 µM, a TGI (CAKI-1 renal) of over 100 µM and a TGI (SK-MEL-2 melanoma) of over 100 µM. It also gave a TGI (MCF7 breast) of over 100 µM, a TGI (NCI/ADR-RES ovarian) of over 100 µM and a TGI (BT-549 breast) of 81.8 µM. It also gave a TGI (OVCAR-5 ovarian) of over 100 µM, a TGI (SN12C renal) of over 100 µM and a TGI (HOP-62 NSCLC) of 27 µM. For the same compound, the TGI (DU-145 prostate) was 47.7 µM, the TGI (MDA-N) was over 100 µM and the TGI (MOLT-4 leukemia) was over 100 µM. The TGI (UACC-257 melanoma) was over 100 µM, the TGI (OVCAR-4 ovarian) was over 100 µM and the TGI (HCT-116 colon) was over 100 µM. It also gave a TGI (OVCAR-8 ovarian) of over 100 µM, a TGI (IGROV1 ovarian) of over 100 µM and a TGI (HOP-92 NSCLC) of 55.6 µM. For the same compound, the TGI (NCI-H460 lung) was over 100 µM, the TGI (ACHN renal) was over 100 µM and the TGI (MDA-MB-435) was over 100 µM. For the same compound, the TGI (TK-10 renal) was 85.6 µM, the TGI (SK-MEL-28 melanoma) was over 100 µM and the TGI (MALME-3M melanoma) was over 100 µM. The TGI (HL-60(TB) leukemia) was over 100 µM, the TGI (MDA-MB-231 breast) was 32.8 µM and the TGI (K-562 leukemia) was over 100 µM. The TGI (HS 578T breast) was over 100 µM and the TGI (NCI-H226 lung) was over 100 µM.

— PubChem BioAssay (NCI)
